According to patent EP0540143B1, “Compounds and methods for inhibition of HIV and related viruses” (priority 1991, dated 1993):
Values joined by “and” are separate entries in the source; they are usually repeats but may differ in a detail not shown here. Equal entries are not always repeated.

Legend:
HIV virus = assay: Test A (XTT), MT4 cells infected with HIV; format: cell-based; conditions: for inhibition at 1 µg/mL / inhibition at 10 µg/mL / inhibition at 100 µg/mL: Human immunodeficiency virus 1, MT4, Test A; for % inhibition: Test A
Protocol: (§1) Tests A, B, C, and D (XTT)
(§2) MT4 cells in a medium of RPMI 1640, 5% FCS, penicillin/streptomycin are adjusted to 2x10^5 cells/ml and seeded into microplates (96 wells/plate) 100 µl cell suspension/well giving 2x10^4 cells/well. The compound to be tested is made into a 10 mg/ml mixture in DMSO and stored at -20°C. The compound in DMSO is diluted with medium containing 10% DMSO in a 10-fold dilution series to give 1 mg/ml, 10 mg/ml, and […] solutions. Further dilutions to 400, 40, 4 and 0.4 mg/ml are made in medium containing microplates. Fifty µl of the 400, 40, and 4 mg/ml are transferred to the cell-containing microplates with a multi-channel pipette (final concentration: 100, 10, and 1 mg/ml). Finally, 50 µl of virus suspension is added to each well (with a repetitive "Eppendorf" multipipett). Each plate has at least six wells with the following: [Test A: HIV virus; Test B: HIV(II) virus; Test C: SIV virus; Test D: No virus]; with no drug (virus control) and six wells without virus (medium control). The plate is put into a plastic bag and incubated for six days in CO2 atmosphere. To each well in the plate is added 50 µl of XTT ((2,3-bis[2-methoxy-4-nitro-5-sulfophenyl]-5-[(phenylamino)carbonyl]-2H-tetrazolium hydroxide), (1 mg/ml 0.01-0.02 mM N-metyl-phenazonium methosulfate). After six hours of incubation in CO2 atmosphere the plates are covered with adhesive plate sealers and gently mixed on a vortex. Optical densities are determined at a wavelength of 450 nm and a reference wavelength of 650 nm. The percent reduction of cytotoxocity caused by the virus infection is calculated as follows: (OD450 compound - OD450 inf cells)/(OD450 uninf cells - OD450 inf cells)x 100 [formula]

HIV(II) virus = assay: Test B (XTT), MT4 cells infected with HIV(II); format: cell-based; conditions: Human immunodeficiency virus 1, MT4, Test B
Protocol: as §1, §2

SIV virus = assay: Test C (XTT), MT4 cells infected with SIV; format: cell-based; conditions: Simian immunodeficiency virus, MT4, Test C
Protocol: as §1, §2

HIV-1 [1] = assay: Test E (HIV-1 RT), RT activity in supernatant of infected MT-4/H9 cells; format: cell-based; conditions: Human immunodeficiency virus 1, H9, Test E
Protocol: (§3) Tests E, F, G, H (HIV-IRT, HIV-2RT, SIVRT, no virus)
(§4) MT-4/H9-cells are adjusted to 2x10^5 cells/ml medium (RPMI 1640, 5% FCS, penicillin/streptomycin) and seeded into microplates (96 wells/plate) […] cell suspension/well giving 2 x 10^4 cells/well. The compound to be tested is made 10 mg/ml in DMSO = stock solution (stored at -20°C). The compound dissolved in DMSO is diluted 25 times in medium to give 400 mg/ml. Further dilutions to 40 mg/ml and 4 mg/ml are made in microplates.
(§5) 50 µl of the dilutions 400 mg/ml, 40 mg/ml and 4mg/ml are transferred to the "cell-containing" microplate with a multichannel pipette. […]
(§6) Finally 50 µl of virus suspension is added to each well (with a repetitive "Eppendorf multipett"). [Test E-HIV-1; Test F-HIV-2; Test G-SIV; Test H-no virus].
(§7) Each plate has at least four wells with virus but no drug (virus control) and two wells without virus (medium control). The plate is put into a plastic bag to avoid evaporation and incubated for six days in CO2-atmosphere. 10 µl supernatant from each well is transferred with a multichannel pipette into a new microplate to which 40 ml VDB, (50 mM Tris-HCl pH = 7.6, 35 mM KCl, 4 mM DTT, 1 mM EDTA, 1.3% Triton X-100), have been added to each well. The addition of 50 ml RT-reaction mix, (10 ml culture supernatant, 40 ml VDB and 50 ml reaction mixture giving a final concentration of: 100 mM Tris-HCl pH = 7.6, 100 mM KCl, 4 mM MgCl2, 4 mM DTT, 275 mg/ml BSA/ml, 5 mg (rA)n(dT)12-18/ml and 0.3 mM ^3H dTTP (specific activity 18.000 cpm/pmol)) gives a final volume of […]/well. After 60 minutes of incubation the whole assay volume is transferred by use of a cell harvester to a filter mat prewetted with 5% TCA. The filter is washed in 5% TCA and rinsed once in ethanol. After drying the filter mat at 60°C for 30 min. each filter (96/mat) is punched out and put into counting vials 2 ml of scintillation fluid is added and the samples are counted (1 min) or the whole filter mat is put into a plastic bag, 10 ml of scintillation fluid is added and the filter mat is counted in a Beckman Betaplate counter. Percent reduction of RT activity is determined by comparing RT activity for virus control with the RT activity measured for each dilution of the compound.

HIV-2 = assay: Test F (HIV-2 RT), RT activity in supernatant of infected MT-4/H9 cells; format: cell-based; conditions: Human immunodeficiency virus 2, H9, Test F
Protocol: as §3, §4, §5, §6, §7

SIV = assay: Test G (SIV RT), RT activity in supernatant of infected MT-4/H9 cells; format: cell-based; conditions: Simian immunodeficiency virus
Protocol: as §3, §4
50 µl of the dilutions 400 mg/ml, 40 mg/ml and 4mg/ml are transferred to the "cell-containing" microplate with a multichannel pipette. (Final concentration: 100, 10 and 1 mg/ml).
as §6, §7

recombinant HIV-RT = recombinant HIV-RT (Human immunodeficiency virus type 1 group M subtype B, UniProt P04585); assay: Test I (HIVRT (rAdt)), direct inhibition of recombinant HIV-RT; format: biochemical
Protocol: The compounds were tested for direct inhibitory activity on HIV-RT in a volume of […] recombinant HIV-RT (diluted in virus disruption buffer to give 200.000 cpm).
100 mM Tris-HCl pH 7.6, 100 mM KCl, 4 mM MgCl2, 4 mM DTT, 275 mg/ml BSA, 0.5 mg (rA)n(dT)12-18 and 0.3 mM ^3H- dTTP (specific activity […]). After 60 minutess of incubation 40 ml in duplicate were spotted on paper discs and washed in 5% TCA. After rinsing the paper discs in ethanol they were dried and counted in scintillation fluid.

MT4 cells = assay: Test D (XTT), MT4 cells, no virus; format: cell-based; conditions: Homo sapiens
Protocol: as §1, §2

HIV-1 [2] = assay: combination with AZT against HIV-1 in CEM cells, technique of Prichard and Shipman; format: cell-based; conditions: combination of AZT and the compound
Protocol: The combination was evaluated against HIV-1 in CEM cells using the technique of Prichard and Shipman (Antiviral Research, 14, 181-206 (1990)).

[3] = titration pKa (66% DMF/H2O)
physchem = conditions: 66% dmf/h2o

Compound	inhibition at 0.1 µg/mL (HIV(II) virus)	inhibition at 1 µg/mL (HIV(II) virus)	inhibition at 10 µg/mL (HIV(II) virus)	inhibition at 100 µg/mL (HIV(II) virus)	inhibition at 1 µg/mL (SIV virus)	inhibition at 10 µg/mL (SIV virus)	inhibition at 100 µg/mL (SIV virus)	inhibition at 1 µg/mL (HIV-1 [1])	inhibition at 10 µg/mL (HIV-1 [1])	inhibition at 100 µg/mL (HIV-1 [1])	inhibition at 1 µg/mL (HIV-2)	inhibition at 10 µg/mL (HIV-2)	inhibition at 100 µg/mL (HIV-2)	inhibition at 0.1 µg/mL (recombinant HIV-RT)	inhibition at 1 µg/mL (recombinant HIV-RT)	inhibition at 10 µg/mL (recombinant HIV-RT)	other results
S=C(NCCc1ccccc1)Nc1nc2c(Cl)cccc2s1	18%	22%	100%	36%	0%	2%	17%	11%	8%	97%	6%	72%	93%	9%	6%	1%	inhibition at 1 µg/mL (HIV virus): 4%; inhibition at 10 µg/mL (HIV virus; 10 µg/ml): 19%; inhibition at 100 µg/mL (HIV virus; 100 µg/ml): 100%; inhibition at 0.1 µg/mL (HIV-2): 1%; inhibition at 1 µg/mL (SIV): 1%; inhibition at 10 µg/mL (SIV): 1%; inhibition at 100 µg/mL (SIV): 87%
S=C(NCCc1ccccc1)Nc1nc2ccc(Cl)cc2s1	24%	9%	67%	27%	0%	0%	21%	1%	51%	96%	1%	79%	98%	12%	18%	18%	inhibition at 1 µg/mL (HIV virus): 0%; inhibition at 10 µg/mL (HIV virus; 10 µg/ml): 63%; inhibition at 100 µg/mL (HIV virus; 100 µg/ml): 68%; % inhibition (HIV virus; 10 µg/ml): 67%; % inhibition (HIV virus; 100 µg/ml): 49%; inhibition at 1 µg/mL (SIV): 1%; inhibition at 10 µg/mL (SIV): 12%; inhibition at 100 µg/mL (SIV): 90%
Fc1ccc2nc(NC(=S)NCCc3ccccc3)sc2c1	4%	40%	12%	93%	2%	5%	19%	51%	16%	95%	77%	62%	97%	33%	38%	39%	% inhibition (HIV virus; 100 µg/ml): 100% and 72%; inhibition at 1 µg/mL (MT4 cells; 1 µg/ml): 5%; inhibition at 10 µg/mL (MT4 cells; 10 µg/ml): 28%; inhibition at 100 µg/mL (MT4 cells; 100 µg/ml): 0%; inhibition at 0.1 µg/mL (HIV-1 [1]; 0.1 µg/ml): 1%; inhibition at 0.1 µg/mL (HIV-2): 4%
Cc1cn([C@H]2C[C@H](N=[N+]=[N-])[C@@H](CO)O2)c(=O)[nH]c1=O [AZT, reference compound]	–	–	–	–	–	–	–	–	–	–	–	–	–	–	–	–	concentration at the peak of synergy (HIV-1 [2]): 0.005 µg/mL
NCCc1c(F)cccc1F [Example 312, 2-(2,6-Difluorophenyl)ethylamine]	–	–	–	–	–	–	–	–	–	–	–	–	–	–	–	–	pKa [3]: 9.06
S=C(NCCC1=CCCCC1)Nc1ccc(Cl)nn1 [Example 336, N-[2-(1-cyclohexenyl)ethyl]-N'-[3-(6-chloro)pyridazinyl]thiourea]	–	–	–	–	–	–	–	–	–	–	–	–	–	–	–	–	pKa ([3]; pKa, 66% DMF): 12.8
Fc1cccc(F)c1CCNC(=S)Nc1ccc(Cl)nn1 [Example 337, N-[2-(2,6-difluorophenyl)ethyl]-N'-[3-(6-chloro)pyridazinyl] thiourea]	–	–	–	–	–	–	–	–	–	–	–	–	–	–	–	–	pKa ([3]; pKa, 66% DMF): 12.7
NCCc1ncccc1F [Example 417, 2-aminoethyl-3-fluoropyridine]	–	–	–	–	–	–	–	–	–	–	–	–	–	–	–	–	pKa (physchem): 9.56
S=C(NCCc1ccccc1)Nc1nccs1 [drawing 35]	–	–	–	–	–	–	–	–	–	–	–	–	–	–	–	–	concentration at the peak of synergy (HIV-1 [2]): 0.5 µg/mL; effect of the combination (HIV-1 [2]): synergistic effect
